Results: ChEMBL document CHEMBL5338723, “Emerging Target-Directed Approaches for the Treatment and Diagnosis of Microbial Infections” (J Med Chem, 2023)
≈ marks a conversion by molar mass, not a printed value. *1 amine or outer side, *2 acyl side, *3 side chain or, on linkers, in order; H or OH if unused. Where a SMILES comes first, the peptide text is derived from it. Side-chain parts run from the residue outwards. [ ]: non-standard residue; d: D form. The star is where a group is joined. X1 = Cn1c(=N)ccn([C@@H]2S[C@H]([C@@H](O)[C@@H](N[*:1])C(=O)[*:2])[C@H](O)[C@H]2O)c1=O; DAMPA = CN(Cc1cnc2nc(N)nc(N)c2n1)c1ccc(C(=O)*)cc1; Orn(N5-OH,N5-Ac) = CC(=O)N(O)CCC[C@H](N)C(=O)O; γGlu = O=C(O)[C@H](CCC(=O)[*:2])N[*:1]; Ethylenediamine = C(CN[*:2])N[*:1]

Key:
Yersinia enterocolitica = assay: Antimicrobial activity against Yersinia enterocolitica assessed as microbial growth inhibition; format: functional
[1] = Potency index, ratio of test compound LD50 to methotrexate LD50 for cytotoxicity against human L02 cells; format: toxicity, cell-based
[2] = Cytotoxicity against human L02 assessed as lethal dose; format: toxicity, cell-based; conditions: L02 cells, read-out: LD50 (the source's name)
Streptococcus pneumoniae = assay: Antimicrobial activity against Streptococcus pneumoniae assessed as microbial growth inhibition; format: functional
Escherichia coli [3] = assay: Antimicrobial activity against exbB/exbD negative Escherichia coli W3110-6 assessed as microbial growth inhibition; format: functional
Escherichia coli [4] = assay: Antimicrobial activity against aroB/fepA/fiu negative Escherichia coli H1877 assessed as microbial growth inhibition; format: functional
Escherichia coli [5] = assay: Antimicrobial activity against pTon positive Escherichia coli W3110-KP1344 harboring pMS7 assessed as microbial growth inhibition; format: functional
Escherichia coli [6] = assay: Antimicrobial activity against Escherichia coli W3110 assessed as microbial growth inhibition; format: functional
Escherichia coli [7] = assay: Antimicrobial activity against aroB negative Escherichia coli H1443 assessed as microbial growth inhibition; format: functional
Escherichia coli [8] = assay: Antimicrobial activity against Escherichia coli MC4100 assessed as microbial growth inhibition; format: functional
Escherichia coli [9] = assay: Antimicrobial activity against aroB/fiu negative Escherichia coli H1594 assessed as microbial growth inhibition; format: functional
Salmonella enteritidis = assay: Antimicrobial activity against Salmonella enterica subsp. enterica serovar Enteritidis assessed as increase in microbial growth inhibition; format: functional
Escherichia coli [10] = assay: Antimicrobial activity against aroB/cir/fiu negative Escherichia coli H1728 assessed as microbial growth inhibition; format: functional
Escherichia coli [11] = assay: Antimicrobial activity against Escherichia coli C600 harboring pHX405 plasmid assessed as microbial growth inhibition; format: functional
Escherichia coli [12] = assay: Antimicrobial activity against Escherichia coli B assessed as microbial growth inhibition; format: functional
Klebsiella pneumoniae = assay: Antibacterial activity against Klebsiella pneumoniae assessed as microbial growth inhibition; format: functional
Escherichia coli [13] = assay: Antimicrobial activity against fhuA negative Escherichia coli C600 assessed as microbial growth inhibition; format: functional
Escherichia coli [14] = assay: Antimicrobial activity against aroB/fepA negative Escherichia coli H873 assessed as microbial growth inhibition; format: functional
Escherichia coli [15] = assay: Antimicrobial activity against aroB/fepA/cir negative Escherichia coli H1875 assessed as microbial growth inhibition; format: functional
Escherichia coli [16] = assay: Antimicrobial activity against Escherichia coli F assessed as microbial growth inhibition; format: functional
Enterobacter cloacae = assay: Antibacterial activity against Enterobacter cloacae; format: functional
Escherichia coli [17] = assay: Antimicrobial activity against Escherichia coli ML35p assessed as microbial growth inhibition; format: functional
Escherichia coli [18] = assay: Antimicrobial activity against aroB/cir negative Escherichia coli H2222 assessed as microbial growth inhibition; format: functional

**Q.** With `CC(=O)N(O)CCC[C@H](NC(=O)[C@H](CCCN(O)C(C)=O)NC(=O)[C@@H](N)CCCN(O)C(C)=O)C(=O)N[C@@H](CCC(=O)NCCNC(=O)CC[C@H](NC(=O)c1ccc(N(C)Cc2cnc3nc(N)nc(N)c3n2)cc1)C(=O)O)C(=O)O` (H-[Orn(N5-OH,N5-Ac)][Orn(N5-OH,N5-Ac)][Orn(N5-OH,N5-Ac)]E([Ethylenediamine-γGlu-DAMPA])-OH) as the compound, how does the MIC (Yersinia enterocolitica) read?
**A.** 0.00684 µM (≈ 0.00781 µg/mL)

**Q.** What about the selectivity ratio [1] of the same compound?
**A.** 2310

**Q.** And the CC50 [2]?
**A.** 18.5 µM

**Q.** What about the MIC (Streptococcus pneumoniae) of the same compound?
**A.** 0.00172 µM (≈ 0.00196 µg/mL)

**Q.** With `CC(=O)N(O)CCC[C@H](NC(=O)[C@H](CCCN(O)C(C)=O)NC(=O)[C@@H](N)CCCN(O)C(C)=O)C(=O)N[C@@H](CO)C(=O)N[C@@H](C(=O)O)[C@H](O)[C@H]1S[C@@H](n2ccc(=N)n(C)c2=O)[C@H](O)[C@H]1O` (H-[Orn(N5-OH,N5-Ac)][Orn(N5-OH,N5-Ac)][Orn(N5-OH,N5-Ac)]S[X1]-OH) as the compound, how does the MIC (Escherichia coli [3]) read?
**A.** 0.04 µM (≈ 0.038 µg/mL)

**Q.** What about the MIC (Escherichia coli [4]) of the same compound?
**A.** 0.04 µM (≈ 0.038 µg/mL)

**Q.** What about the MIC (Escherichia coli [5]) of the same compound?
**A.** 0.04 µM (≈ 0.038 µg/mL)

**Q.** What about the MIC (Escherichia coli [6]) of the same compound?
**A.** 0.04 µM (≈ 0.038 µg/mL)

**Q.** What about the MIC (Escherichia coli [7]) of the same compound?
**A.** 0.04 µM (≈ 0.038 µg/mL)

**Q.** And the MIC (Escherichia coli [8])?
**A.** 0.04 µM (≈ 0.038 µg/mL)

**Q.** What about the MIC (Escherichia coli [9]) of the same compound?
**A.** 0.04 µM (≈ 0.038 µg/mL)

**Q.** And the MIC (Salmonella enteritidis)?
**A.** 0.04 µM

**Q.** And the MIC (Escherichia coli [10])?
**A.** 0.04 µM (≈ 0.038 µg/mL)

**Q.** What about the MIC (Escherichia coli [11]) of the same compound?
**A.** 0.04 µM (≈ 0.038 µg/mL)

**Q.** And the MIC (Escherichia coli [12])?
**A.** 0.04 µM (≈ 0.038 µg/mL)

**Q.** And the MIC (Klebsiella pneumoniae)?
**A.** 0.04 µM (≈ 0.038 µg/mL)

**Q.** And the MIC (Escherichia coli [13])?
**A.** 0.04 µM (≈ 0.038 µg/mL)

**Q.** And the MIC (Escherichia coli [14])?
**A.** 0.04 µM (≈ 0.038 µg/mL)

**Q.** And the MIC (Escherichia coli [15])?
**A.** 0.04 µM (≈ 0.038 µg/mL)

**Q.** And the MIC (Escherichia coli [16])?
**A.** 0.04 µM (≈ 0.038 µg/mL)

**Q.** What about the MIC (Enterobacter cloacae) of the same compound?
**A.** 0.04 µM (≈ 0.038 µg/mL)

**Q.** What about the MIC (Escherichia coli [17]) of the same compound?
**A.** 0.04 µM (≈ 0.038 µg/mL)

**Q.** What about the MIC (Escherichia coli [18]) of the same compound?
**A.** 0.04 µM (≈ 0.038 µg/mL)
